Biological target: CNS nicotinic receptors
Experiment: Determination of binding to relevant receptor sites
Details: free base used to prepare the salts
Method: Receptor binding constants provide a measure of the ability of the compound to bind to half of the relevant receptor sites of certain brain cells of the patient. See, Cheng, et al., Biochem. Pharmacol. 22:3099 (1973). The (2S)-(4E)-N-methyl-5-[3-(5-isopropoxypyridin)yl]-4-penten-2-amine compound used to prepare the salts has extremely high affinity for the relevant receptors, with a binding affinity in the low nM range.
Binding of the compounds to relevant receptor sites was determined in accordance with the techniques described in U.S. Pat. No. 6,953,855 to Mazurov et al Inhibition constants (Ki values), reported in nM, were calculated from the IC50 values using the method of Cheng et al., Biochem, Pharmacol. 22:3099 (1973).

binding affinity (receptor binding constant, Ki): low nM range
Compound: CN[C@@H](C)C/C=C/c1cncc(OC(C)C)c1 [(2S)-(4E)-N-methyl-5-[3-(5-isopropoxypyridin)yl]-4-penten-2-amine]

Reference: patent US8017785B2, “Salt forms of (2S)-(4E)-N-methyl-5-[3-(5-isopropoxypyridin)y1]-4-penten 2-amine” (AstraZeneca AB, priority 2006, dated 2011)
